Laboratory results: US20220265629A1, “TREATMENT OF SYSTOLIC DYSFUNCTION AND HEART FAILURE WITH REDUCED EJECTION FRACTION WITH THE COMPOUND (R)-4-(1-((3-(DIFLUOROMETHYL)-1-METHYL-1H-PYRAZOL-4-YL)SULFONYL)-1-FLUOROETHYL)-N-(ISOXAZOL-3-YL)PIPERIDINE-1-CARBOXAMIDE” (MyoKardia, Inc., priority 2019, published 2022)
Where two headings read alike, the source gives them in different places.

Assay: Single ascending oral dose study in healthy volunteers: plasma pharmacokinetics
Format: in vivo, human
Conditions: plasma, oral; for concentration at 6 h / concentration at 12 h / concentration at 24 h / concentration at 48 h / concentration at 72 h / AUC(0-t) / AUC(0-inf) / Cmax / half-life / MRT / Tmax / Vd/F: human; for concentration at 12 h: 12 Hours Postdose; for concentration at 24 h: 24 Hours Postdose; for concentration at 48 h: 48 Hours Postdose; for concentration at 72 h: 72 Hours Postdose
From the text: This example describes the first-in-human study of Compound I. Based on its mechanism of action, Compound I may offer a targeted therapy for patients with DCM caused by genetic or nongenetic mechanisms. The study was a randomized, double-blind, placebo-controlled, sequential group, single-ascending (oral) close study in healthy subjects aged 18-55 years. Eight dosing cohorts, each comprising eight healthy subjects, were enrolled. Within each cohort, subjects were randomized 6:2 to Compound I:placebo.
Subjects were resident at the clinical site for up to 5 days and 4 nights, from Day −1 (the day before dosing) to Day 4, and received a single dose of Compound I or placebo on Day 1. ECG telemetry was initiated 1 hour preclose and continued through 48 hours postclose (Day 3). Any subject with a preclose resting HR≥80 beats per minute was considered ineligible and not treated. […] Subjects returned for a safety follow-up visit 7 days (±1 day) after dosing.
All randomized study subjects received either Compound I or matching placebo as a single oral dose after a fasting period of at least 6 hours. Compound I drug substance is a crystalline, free-base, synthetic molecule with a molecular weight of 435.4 g/mol.
Compound I was provided as a powder for oral suspension. Placebo was provided as calcium carbonate powder. Both treatments were closed orally as a suspension. The suspension was made using Ora-Plus® suspending vehicle (Perrigo) and a cherry syrup flavoring vehicle (Humco), mixed 50% to 50%. The suspension was followed by approximately 100 mL water. The suspension was made up within 14 days from the time in which it was closed which was consistent with the stability data on the suspension. The suspension was made up so the volume administered to the subjects who received Compound I was the same at 20 mL.
Each subject received a close according to the cohort in which they were enrolled. Cohorts were enrolled sequentially, with each cohort receiving an escalated dose of Compound I. The closes administered were 3 mg, 10 mg, 25 mg, 50 mg, 100 mg, 175 mg, 350 mg, and 525 mg, respectively.
The concentrations of Compound I in human plasma and urine were quantitated by high performance liquid chromatography with tandem mass spectrometric detection (LC MS/MS) (Biological sample analysis study report Alturas AD17-726). Plasma samples were extracted by protein precipitation with acetonitrile containing internal standard MYK-5654. The calibration curves were linear over concentration range of 0.500 to 1000 ng/mL with a lower limit of quantification (LLOQ) of 0.500 ng/mL.
The PK Population included all subjects who received Compound I. Blood samples were collected for PK assessments. The actual timing of the samples may have been modified and/or up to an additional 2 samples may have been requested by the SRC after review of the data from previous cohorts. It was important that PK sampling occurred as closely as possible to the scheduled time (±10%). Both blood and urine samples were used for PK assessments.
In addition, for subjects who received placebo, a single plasma sample near the predicted tmax of Compound I was evaluated to confirm the lack of circulating Compound I. Plasma concentration data for Compound I was summarized using descriptive statistics, including mean, standard deviation (SD), median, minimum, and maximum values, and percent coefficient of variation. Other PK parameters included (but were not limited to) Cmax, tmax, AUC, t1/2, and MRT. Additionally, the apparent terminal-phase terminal half-life was calculated. The close proportionality of AUC and Cmax was explored.

[1] = 350 mg, 350 mg, read-out: Plasma concentration, Geometric Mean
[2] = 350 mg, 350 mg, read-out: Plasma concentration, Mean
[3] = 350 mg, 350 mg, read-out: Plasma concentration, Median
[4] = 525 mg, 525 mg, read-out: Plasma concentration, Geometric Mean
[5] = 525 mg, 525 mg, read-out: Plasma concentration, Mean
[6] = 525 mg, 525 mg, read-out: Plasma concentration, Median
[7] = 350 mg + 525 mg, read-out: Plasma concentration, Geometric Mean
[8] = 350 mg + 525 mg, read-out: Plasma concentration, Mean
[9] = 350 mg + 525 mg, read-out: Plasma concentration, Median

Structure (SMILES): Cn1cc(S(=O)(=O)[C@@](C)(F)C2CCN(C(=O)Nc3ccon3)CC2)c(C(F)F)n1 [Compound I, (R)-4-(1-((3-(difluoromethyl)-1-methyl-1H-pyrazol-4-yl)sulfonyl)-1-fluoroethyl)-N-(isoxazol-3-yl)piperidine-1-carboxamide]
- concentration at 6 h (350 mg, 6 Hours Postdose, 350 mg, read-out: Plasma concentration, Mean): 2660 ng/mL
- concentration at 6 h (350 mg, 6 Hours Postdose, 350 mg, read-out: Plasma concentration, Median): 2550 ng/mL
- concentration at 12 h [1]: 2090 ng/mL
- concentration at 12 h [2]: 2140 ng/mL
- concentration at 12 h [3]: 2120 ng/mL
- concentration at 24 h [1]: 1280 ng/mL
- concentration at 24 h [2]: 1320 ng/mL
- concentration at 24 h [3]: 1340 ng/mL
- concentration at 48 h [1]: 329 ng/mL
- concentration at 48 h [2]: 373 ng/mL
- concentration at 48 h [3]: 350 ng/mL
- concentration at 72 h [1]: 101 ng/mL
- concentration at 72 h [2]: 128 ng/mL
- concentration at 72 h [3]: 111 ng/mL
- AUC(0-t) (350 mg, read-out: AUC0-24, Geometric Mean): 44700 ng·h/mL
- AUC(0-t) (350 mg, read-out: AUC0-24, Mean): 45600 ng·h/mL
- AUC(0-t) (350 mg, read-out: AUC0-24, Median): 45000 ng·h/mL
- AUC(0-t) (350 mg, read-out: AUC0-48, Geometric Mean): 64200 ng·h/mL
- AUC(0-t) (350 mg, read-out: AUC0-48, Mean): 65900 ng·h/mL
- AUC(0-t) (350 mg, read-out: AUC0-48, Median): 66400 ng·h/mL
- AUC(0-t) (350 mg, read-out: AUC0-last, Geometric Mean): 73200 ng·h/mL
- AUC(0-t) (350 mg, read-out: AUC0-last, Mean): 76300 ng·h/mL
- AUC(0-t) (350 mg, read-out: AUC0-last, Median): 76200 ng·h/mL
- AUC(0-inf) (350 mg, read-out: AUC0-∞, Geometric Mean): 73600 ng·h/mL
- AUC(0-inf) (350 mg, read-out: AUC0-∞, Mean): 76700 ng·h/mL
- AUC(0-inf) (350 mg, read-out: AUC0-∞, Median): 76200 ng·h/mL
- Cmax (350 mg, read-out: Cmax, Geometric Mean): 2790 ng/mL
- Cmax (350 mg, read-out: Cmax, Mean): 2820 ng/mL
- Cmax (350 mg, read-out: Cmax, Median): 2900 ng/mL
- half-life (350 mg, read-out: Half-Life Lambda Z, Geometric Mean (converted)): 14.3 h
- half-life (350 mg, read-out: Half-Life Lambda Z, Mean (converted)): 14.7 h
- half-life (350 mg, read-out: Half-Life Lambda Z, Median (converted)): 14.5 h
- MRT (350 mg, read-out: Mean Residence Time, Geometric Mean): 22.4 h
- MRT (350 mg, read-out: Mean Residence Time, Mean): 22.8 h
- MRT (350 mg, read-out: Mean Residence Time, Median): 22.7 h
- Tmax (350 mg, read-out: Tmax, Geometric Mean): 4.84 h
- Tmax (350 mg, read-out: Tmax, Mean): 4.95 h
- Tmax (350 mg, read-out: Tmax, Median): 5 h
- Vd/F (350 mg, read-out: Vz/F, Geometric Mean): 98.3 L
- Vd/F (350 mg, read-out: Vz/F, Mean): 98.8 L
- Vd/F (350 mg, read-out: Vz/F, Median): 98.4 L
- concentration at 6 h (525 mg, 6 Hours Postdose, 525 mg, read-out: Plasma concentration, Geometric Mean): 2160 ng/mL
- concentration at 6 h (525 mg, 6 Hours Postdose, 525 mg, read-out: Plasma concentration, Mean): 2220 ng/mL
- concentration at 6 h (525 mg, 6 Hours Postdose, 525 mg, read-out: Plasma concentration, Median): 2220 ng/mL
- concentration at 12 h [4]: 1780 ng/mL
- concentration at 12 h [5]: 1840 ng/mL
- concentration at 12 h [6]: 1780 ng/mL
- concentration at 24 h [4]: 1190 ng/mL
- concentration at 24 h [5]: 1230 ng/mL
- concentration at 24 h [6]: 1180 ng/mL
- concentration at 48 h [4]: 420 ng/mL
- concentration at 48 h [5]: 465 ng/mL
- concentration at 48 h [6]: 426 ng/mL
- concentration at 72 h [4]: 116 ng/mL
- concentration at 72 h [5]: 147 ng/mL
- concentration at 72 h [6]: 122 ng/mL
- AUC(0-t) (525 mg, read-out: AUC0-24, Geometric Mean): 37500 ng·h/mL
- AUC(0-t) (525 mg, read-out: AUC0-24, Mean): 38500 ng·h/mL
- AUC(0-t) (525 mg, read-out: AUC0-24, Median): 38200 ng·h/mL
- AUC(0-t) (525 mg, read-out: AUC0-48, Geometric Mean): 57000 ng·h/mL
- AUC(0-t) (525 mg, read-out: AUC0-48, Mean): 58900 ng·h/mL
- AUC(0-t) (525 mg, read-out: AUC0-48, Median): 57400 ng·h/mL
- AUC(0-t) (525 mg, read-out: AUC0-last, Geometric Mean): 68100 ng·h/mL
- AUC(0-t) (525 mg, read-out: AUC0-last, Mean): 71700 ng·h/mL
- AUC(0-t) (525 mg, read-out: AUC0-last, Median): 68600 ng·h/mL
- AUC(0-inf) (525 mg, read-out: AUC0-∞, Geometric Mean): 68500 ng·h/mL
- AUC(0-inf) (525 mg, read-out: AUC0-∞, Mean): 72100 ng·h/mL
- AUC(0-inf) (525 mg, read-out: AUC0-∞, Median): 68800 ng·h/mL
- Cmax (525 mg, read-out: Cmax, Geometric Mean): 2290 ng/mL
- Cmax (525 mg, read-out: Cmax, Mean): 2350 ng/mL
- Cmax (525 mg, read-out: Cmax, Median): 2240 ng/mL
- half-life (525 mg, read-out: Half-Life Lambda Z, Geometric Mean (converted)): 14.7 h
- half-life (525 mg, read-out: Half-Life Lambda Z, Mean (converted)): 15.1 h
- half-life (525 mg, read-out: Half-Life Lambda Z, Median (converted)): 13.8 h
- MRT (525 mg, read-out: Mean Residence Time, Geometric Mean): 25.4 h
- MRT (525 mg, read-out: Mean Residence Time, Mean): 25.8 h
- MRT (525 mg, read-out: Mean Residence Time, Median): 25 h
- Tmax (525 mg, read-out: Tmax, Geometric Mean): 4.94 h
- Tmax (525 mg, read-out: Tmax, Mean): 4.97 h
- Tmax (525 mg, read-out: Tmax, Median): 5 h
- Vd/F (525 mg, read-out: Vz/F, Geometric Mean): 162 L
- Vd/F (525 mg, read-out: Vz/F, Mean): 166 L
- Vd/F (525 mg, read-out: Vz/F, Median): 171 L
- concentration at 6 h (6 Hours Postdose, 350 mg + 525 mg, read-out: Plasma concentration, Geometric Mean): 2380 ng/mL
- concentration at 6 h (6 Hours Postdose, 350 mg + 525 mg, read-out: Plasma concentration, Mean): 2440 ng/mL
- concentration at 6 h (6 Hours Postdose, 350 mg + 525 mg, read-out: Plasma concentration, Median): 2350 ng/mL
- concentration at 12 h [7]: 1930 ng/mL
- concentration at 12 h [8]: 1990 ng/mL
- concentration at 12 h [9]: 1860 ng/mL
- concentration at 24 h [7]: 1230 ng/mL
- concentration at 24 h [8]: 1280 ng/mL
- concentration at 24 h [9]: 1210 ng/mL
- concentration at 48 h [7]: 372 ng/mL
- concentration at 48 h [8]: 419 ng/mL
- concentration at 48 h [9]: 415 ng/mL
- concentration at 72 h [7]: 108 ng/mL
- concentration at 72 h [8]: 137 ng/mL
- concentration at 72 h [9]: 122 ng/mL
- concentration at 6 h (6 hours post-dose, bin 0-1000 ng/mL (n = 29), read-out: Plasma Concentration, Mean): 334 ng/mL
- concentration at 6 h (6 hours post-dose, bin 0-1000 ng/mL (n = 29), read-out: Plasma Concentration, Median): 286 ng/mL
- concentration at 6 h (6 hours post-dose, bin 1001-2000 ng/mL (n = 9), read-out: Plasma Concentration, Mean): 1360 ng/mL
- concentration at 6 h (6 hours post-dose, bin 1001-2000 ng/mL (n = 9), read-out: Plasma Concentration, Median): 1270 ng/mL
- concentration at 6 h (6 hours post-dose, bin >2000 ng/mL (n = 10), read-out: Plasma Concentration, Mean): 2590 ng/mL
- concentration at 6 h (6 hours post-dose, bin >2000 ng/mL (n = 10), read-out: Plasma Concentration, Median): 2420 ng/mL
- half-life (across the dose groups, read-out: terminal t1/2): 11 to 16 h
- half-life (combined 350 and 525 mg group, read-out: t1/2, range): 11 to 22 h
- Tmax (combined 350 and 525 mg group, read-out: tmax, range): 3 to 6 h
- Vd/F (doses ranging from 3 mg to 525 mg, read-out: volume of distribution (Vz/F)): 58 to 166 L
- Vd/F (doses up to 175 mg, read-out: mean apparent volume of distribution (Vz/F)): ~78 L
- Tmax (healthy volunteers, read-out: Tmax): 4 to 6 h
- half-life (healthy volunteers, read-out: terminal t1/2 (half-life) (converted)): ~15 h
- Vd (1-compartmental model analysis of in vivo data in human): 0.965 L/kg
- clearance (1-compartmental model analysis of in vivo data in human, read-out: CL (Human)): 0.949 mL/min/kg
